Source: ChEMBL document CHEMBL1201862, “PubChem BioAssay data set” (2004)
Several values for one entry are separate records, joined by “and”; a condition that tells them apart may be missing. Identical values can stand only once.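 Each compound was tested at five concentrations against cells in 96-well plates for 48 hours. GI50 = concentration required for 50% inhibition of growth.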 Activity calls are given as the source filed them. No stated cut-off is given here; in the data, active = GI50 up to about 1.1 µM and inactive = higher.

Columns and labels:
Test in all cases: growth of human tumour cells (NCI), 48 h
786-0 = system: 786-0
A498 = system: A498
ACHN = system: ACHN
CAKI-1 = system: CAKI-1
CCRF-CEM = system: CCRF-CEM
COLO 205 = system: COLO 205
DLD-1 = system: DLD-1
DMS-114 = system: DMS-114
DMS-273 = system: DMS-273
EKVX = system: EKVX
HCC 2998 = system: HCC 2998
HCT-15 = system: HCT-15
HL-60 = system: HL-60
HOP-18 = system: HOP-18
HOP-92 = system: HOP-92
HT-29 = system: HT-29
IGROV-1 = system: IGROV-1
K562 = system: K562
KM12 = system: KM12
LOX IMVI = system: LOX IMVI
LXFL 529 = system: LXFL 529
M14 = system: M14
M19-MEL = system: M19-MEL
MOLT-4 = system: MOLT-4
Malme-3M = system: Malme-3M
NCI-H23 = system: NCI-H23
NCI-H460 = system: NCI-H460
NCI-H522 = system: NCI-H522
OVCAR-3 = system: OVCAR-3
OVCAR-4 = system: OVCAR-4
OVCAR-5 = system: OVCAR-5
OVCAR-8 = system: OVCAR-8
RPMI-8226 = system: RPMI-8226
SF-268 = system: SF-268
SF-539 = system: SF-539
SK-MEL-28 = system: SK-MEL-28
SK-MEL-2 = system: SK-MEL-2
SK-MEL-5 = system: SK-MEL-5
SK-OV-3 = system: SK-OV-3
SN12C = system: SN12C
SNB-19 = system: SNB-19
SNB-75 = system: SNB-75
SW-620 = system: SW-620
TK-10 = system: TK-10
U-251 = system: U-251
UACC-257 = system: UACC-257
UACC-62 = system: UACC-62
UO-31 = system: UO-31
XF498 = system: XF498
A549 = system: A549
HCT-116 = system: HCT-116
HOP-62 = system: HOP-62
KM-20L2 = system: KM-20L2
NCI-H226 = system: NCI-H226
SNB-78 = system: SNB-78
SR = system: SR
SF-295 = system: SF-295

In the case of `NCCCNCCSSC/C=C\CSSCCNCCCN`, the GI50 (786-0) was > 100 µM (inactive), the GI50 (A498) was > 100 µM (inactive) and the GI50 (ACHN) was > 100 µM (inactive). For the same molecule, the GI50 (CAKI-1) was 36.1 µM (inactive) and 38.5 µM (inactive), the GI50 (CCRF-CEM) was 3.75 µM (inactive) and 4.3 µM (inactive) and the GI50 (COLO 205) was 29.5 µM (inactive) and 45.6 µM (inactive). The GI50 (DLD-1) was 37.5 µM (inactive) and 60.1 µM (inactive), the GI50 (DMS-114) was 67 µM (inactive) and 44.1 µM (inactive) and the GI50 (DMS-273) was 43.1 µM (inactive) and 44.8 µM (inactive). For the same molecule, the GI50 (EKVX) was > 100 µM (inactive), the GI50 (HCC 2998) was 90.6 µM (inactive) and the GI50 (HCT-15) was > 100 µM and 63.7 µM. For the same molecule, the GI50 (HL-60) was 16.6 µM (inactive) and 19.2 µM (inactive), the GI50 (HOP-18) was > 100 µM (inactive) and the GI50 (HOP-92) was 18.9 µM (inactive) and 23 µM (inactive). The GI50 (HT-29) was 14.2 µM (inactive) and 15.3 µM (inactive), the GI50 (IGROV-1) was > 100 µM (inactive) and the GI50 (K562) was 19.2 µM (inactive) and 18.4 µM (inactive). For the same molecule, the GI50 (KM12) was 17.7 µM (inactive) and 18.9 µM (inactive), the GI50 (LOX IMVI) was 45.2 µM (inactive) and 43.3 µM (inactive) and the GI50 (LXFL 529) was 34.9 µM (inactive) and 24.9 µM (inactive). The GI50 (M14) was 34 µM (inactive) and 49 µM (inactive), the GI50 (M19-MEL) was 64.6 µM (inactive) and the GI50 (MOLT-4) was 20.4 µM (inactive) and 12.3 µM (inactive). The GI50 (Malme-3M) was 78 µM (inactive), the GI50 (NCI-H23) was > 100 µM (inactive) and the GI50 (NCI-H460) was > 100 µM (inactive). For the same molecule, the GI50 (NCI-H522) was 10.3 µM (inactive) and 13.2 µM (inactive), the GI50 (OVCAR-3) was 40.5 µM (inactive) and 42 µM (inactive) and the GI50 (OVCAR-4) was 51.8 µM (inactive) and 58.2 µM (inactive). For the same molecule, the GI50 (OVCAR-5) was > 100 µM (inactive), the GI50 (OVCAR-8) was > 100 µM (inactive) and the GI50 (RPMI-8226) was 26.9 µM (inactive) and 28.6 µM (inactive). The GI50 (SF-268) was > 100 µM (inactive) and 57.8 µM (inactive), the GI50 (SF-539) was 72.4 µM (inactive) and 89.3 µM (inactive) and the GI50 (SK-MEL-28) was > 100 µM (inactive). The GI50 (SK-MEL-2) was 50.1 µM (inactive), the GI50 (SK-MEL-5) was 41.1 µM (inactive) and 62.1 µM (inactive) and the GI50 (SK-OV-3) was > 100 µM (inactive). For the same molecule, the GI50 (SN12C) was 75.7 µM (inactive) and 44.4 µM (inactive), the GI50 (SNB-19) was > 100 µM (inactive) and the GI50 (SNB-75) was 39.5 µM (inactive) and 37.3 µM (inactive). The GI50 (SW-620) was 44.4 µM (inactive) and 31.1 µM (inactive), the GI50 (TK-10) was > 100 µM (inactive) and 60.3 µM (inactive) and the GI50 (U-251) was > 100 µM (inactive) and 53.8 µM (inactive). For the same molecule, the GI50 (UACC-257) was 30.9 µM (inactive) and 17.1 µM (inactive), the GI50 (UACC-62) was 36.3 µM (inactive) and 52.8 µM (inactive) and the GI50 (UO-31) was 65 µM (inactive) and 63.4 µM (inactive). The GI50 (XF498) was 52.6 µM (inactive) and 93.5 µM (inactive).

In the case of `COC(=O)c1c/c(=N\NC(=O)CC(=O)Nc2ccccc2OC)c2ccccc2o1`, the GI50 (786-0) was 66.4 µM (inactive), the GI50 (A498) was > 100 µM (inactive) and the GI50 (A549) was 74.8 µM (inactive). For the same molecule, the GI50 (ACHN) was > 100 µM (inactive), the GI50 (CAKI-1) was > 100 µM (inactive) and the GI50 (COLO 205) was > 100 µM (inactive). The GI50 (DLD-1) was > 100 µM (inactive), the GI50 (DMS-114) was > 100 µM (inactive) and the GI50 (DMS-273) was > 100 µM (inactive). For the same molecule, the GI50 (EKVX) was > 100 µM (inactive), the GI50 (HCC 2998) was 93.1 µM (inactive) and the GI50 (HCT-116) was > 100 µM (inactive). For the same molecule, the GI50 (HCT-15) was over 100 µM, the GI50 (HL-60) was > 100 µM (inactive) and the GI50 (HOP-18) was 15.2 µM (inactive). The GI50 (HOP-62) was > 100 µM (inactive), the GI50 (HT-29) was > 100 µM (inactive) and the GI50 (IGROV-1) was > 100 µM (inactive). For the same molecule, the GI50 (K562) was 54.2 µM (inactive), the GI50 (KM-20L2) was > 100 µM (inactive) and the GI50 (KM12) was > 100 µM (inactive). For the same molecule, the GI50 (LOX IMVI) was 66.8 µM (inactive), the GI50 (LXFL 529) was > 100 µM (inactive) and the GI50 (M14) was > 100 µM (inactive). The GI50 (M19-MEL) was > 100 µM (inactive), the GI50 (MOLT-4) was 75.7 µM (inactive) and the GI50 (NCI-H226) was > 100 µM (inactive). For the same molecule, the GI50 (NCI-H23) was > 100 µM (inactive), the GI50 (NCI-H460) was 76 µM (inactive) and the GI50 (NCI-H522) was > 100 µM (inactive). For the same molecule, the GI50 (OVCAR-3) was > 100 µM (inactive), the GI50 (OVCAR-4) was > 100 µM (inactive) and the GI50 (OVCAR-5) was > 100 µM (inactive). The GI50 (RPMI-8226) was > 100 µM (inactive), the GI50 (SF-268) was > 100 µM (inactive) and the GI50 (SF-539) was > 100 µM (inactive). For the same molecule, the GI50 (SK-MEL-28) was > 100 µM (inactive), the GI50 (SK-MEL-2) was > 100 µM (inactive) and the GI50 (SK-MEL-5) was 91.8 µM (inactive). For the same molecule, the GI50 (SK-OV-3) was > 100 µM (inactive), the GI50 (SN12C) was > 100 µM (inactive) and the GI50 (SNB-19) was > 100 µM (inactive). For the same molecule, the GI50 (SNB-75) was > 100 µM (inactive), the GI50 (SNB-78) was > 100 µM (inactive) and the GI50 (SR) was > 100 µM (inactive). For the same molecule, the GI50 (SW-620) was > 100 µM (inactive), the GI50 (TK-10) was > 100 µM (inactive) and the GI50 (U-251) was > 100 µM (inactive). The GI50 (UACC-62) was > 100 µM (inactive) and the GI50 (UO-31) was > 100 µM (inactive).

For `O=C(Nc1ccc(Cl)c(Cl)c1)C1C(=O)N(c2ccc(Cl)c(Cl)c2)C(=O)/C1=N\O` (stereo unspecified), the GI50 (786-0) was 44.5 µM (inactive), the GI50 (A498) was > 100 µM (inactive) and the GI50 (A549) was 36.6 µM (inactive). The GI50 (ACHN) was > 100 µM (inactive), the GI50 (CAKI-1) was > 100 µM (inactive) and the GI50 (CCRF-CEM) was 42.1 µM (inactive). For the same molecule, the GI50 (COLO 205) was 19.3 µM (inactive), the GI50 (DLD-1) was > 100 µM (inactive) and the GI50 (DMS-114) was 30.3 µM (inactive). For the same molecule, the GI50 (DMS-273) was > 100 µM (inactive), the GI50 (EKVX) was 39.6 µM (inactive) and the GI50 (HCC 2998) was > 100 µM (inactive). The GI50 (HCT-116) was 32.6 µM (inactive), the GI50 (HCT-15) was over 100 µM and the GI50 (HOP-18) was > 100 µM (inactive). The GI50 (HOP-62) was > 100 µM (inactive), the GI50 (HOP-92) was > 100 µM (inactive) and the GI50 (HT-29) was 39.4 µM (inactive). The GI50 (IGROV-1) was > 100 µM (inactive), the GI50 (K562) was 16.9 µM (inactive) and the GI50 (KM-20L2) was 43.5 µM (inactive). The GI50 (LOX IMVI) was 24.5 µM (inactive), the GI50 (LXFL 529) was > 100 µM (inactive) and the GI50 (M14) was 22.9 µM (inactive). For the same molecule, the GI50 (M19-MEL) was 31.8 µM (inactive), the GI50 (MOLT-4) was > 100 µM (inactive) and the GI50 (Malme-3M) was > 100 µM (inactive). For the same molecule, the GI50 (NCI-H226) was 50.5 µM (inactive), the GI50 (NCI-H23) was > 100 µM (inactive) and the GI50 (NCI-H522) was 27.4 µM (inactive). For the same molecule, the GI50 (OVCAR-3) was > 100 µM (inactive), the GI50 (OVCAR-4) was 70.1 µM (inactive) and the GI50 (OVCAR-5) was > 100 µM (inactive). The GI50 (OVCAR-8) was > 100 µM (inactive), the GI50 (RPMI-8226) was > 100 µM (inactive) and the GI50 (SF-268) was > 100 µM (inactive). For the same molecule, the GI50 (SF-295) was 73.5 µM (inactive), the GI50 (SF-539) was > 100 µM (inactive) and the GI50 (SK-MEL-28) was 25.6 µM (inactive). For the same molecule, the GI50 (SK-MEL-2) was > 100 µM (inactive), the GI50 (SK-MEL-5) was > 100 µM (inactive) and the GI50 (SK-OV-3) was > 100 µM (inactive). For the same molecule, the GI50 (SN12C) was 61.8 µM (inactive), the GI50 (SNB-19) was > 100 µM (inactive) and the GI50 (SNB-75) was > 100 µM (inactive). For the same molecule, the GI50 (SNB-78) was > 100 µM (inactive), the GI50 (SW-620) was 49 µM (inactive) and the GI50 (TK-10) was > 100 µM (inactive). For the same molecule, the GI50 (U-251) was 66.8 µM (inactive), the GI50 (UACC-257) was 51.2 µM (inactive) and the GI50 (UACC-62) was > 100 µM (inactive). The GI50 (UO-31) was > 100 µM (inactive).
